Test results reported in US8148373B2, “Compounds” (AstraZeneca AB, priority 2008, dated 2012).

Experiments:
[1] = biological target: T1, Adrenergic β2 (H292 cells) (Homo sapiens, UniProt P07550); test: Assay for Adrenergic β2 Mediated cAMP Production (concentration response, AlphaScreen cAMP detection); format: cell-based; details: for EC50: cAMP production, 60 minutes at room temperature, 300 μM rolipram, read-out: β2 pEC50 (converted); for β2 Intrinsic activity: fraction relative to the maximum activity determined for formoterol
T1 construct: endogenous in cells; host or cells: H292 cells
T1 sequence (P07550 whole entry): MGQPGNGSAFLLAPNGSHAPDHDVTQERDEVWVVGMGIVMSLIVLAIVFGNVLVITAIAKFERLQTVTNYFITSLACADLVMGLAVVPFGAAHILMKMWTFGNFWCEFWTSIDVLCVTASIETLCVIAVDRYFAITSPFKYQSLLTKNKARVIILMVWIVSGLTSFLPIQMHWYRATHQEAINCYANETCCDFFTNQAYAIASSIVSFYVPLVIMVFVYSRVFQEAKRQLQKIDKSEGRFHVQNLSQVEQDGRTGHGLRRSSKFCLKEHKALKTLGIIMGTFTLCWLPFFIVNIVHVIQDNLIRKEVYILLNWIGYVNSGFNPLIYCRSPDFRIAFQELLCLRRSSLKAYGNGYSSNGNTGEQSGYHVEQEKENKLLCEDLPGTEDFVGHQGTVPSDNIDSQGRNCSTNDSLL
Method in brief: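 H292 cells plated overnight, pre-treated with rolipram (300 μM final) 10 min, then compound 60 min at room temperature in HBSS/10 mM HEPES pH7.4/5 mM glucose, 1% DMSO. Lysate cAMP read by AlphaScreen against a cAMP standard curve; 4-parameter fit gives pEC50 and intrinsic activity as fraction of formoterol maximum.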

[2] = biological target: T2, human muscarinic acetylcholine M3 receptor (M3-ACh) (Homo sapiens, UniProt P20309); test: Muscarinic 3 Receptor Binding Assay ([3H]NMS competition, SPA); details: for IC50: [3H]NMS 0.1 nM, CHO-K1 cell membranes, 16 hours at room temperature, read-out: M3 pIC50 (converted)
T2 construct: expressed in transfected cells; host or cells: CHO-K1 (Chinese Hamster Ovary) cell membranes
T2 sequence (P20309 whole entry): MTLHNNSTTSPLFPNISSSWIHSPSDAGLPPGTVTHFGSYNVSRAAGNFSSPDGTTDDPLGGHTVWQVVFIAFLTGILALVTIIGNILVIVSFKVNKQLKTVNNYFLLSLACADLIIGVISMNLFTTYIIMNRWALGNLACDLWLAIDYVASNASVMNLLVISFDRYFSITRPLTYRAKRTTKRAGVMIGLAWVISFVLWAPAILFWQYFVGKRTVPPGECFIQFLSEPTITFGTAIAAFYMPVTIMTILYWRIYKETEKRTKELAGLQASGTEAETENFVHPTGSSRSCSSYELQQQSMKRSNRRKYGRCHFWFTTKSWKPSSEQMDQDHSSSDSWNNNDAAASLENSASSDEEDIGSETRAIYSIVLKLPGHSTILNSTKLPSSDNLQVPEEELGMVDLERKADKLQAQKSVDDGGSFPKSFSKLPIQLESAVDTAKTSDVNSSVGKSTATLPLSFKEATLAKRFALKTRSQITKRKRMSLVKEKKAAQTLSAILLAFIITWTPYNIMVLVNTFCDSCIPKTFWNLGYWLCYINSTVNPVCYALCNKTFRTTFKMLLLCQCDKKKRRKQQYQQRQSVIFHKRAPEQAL
Method in brief: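 Competition SPA binding of 0.1 nM [3H]NMS (quarter Kd) to membranes from CHO-K1 cells expressing human M3, in 20 mM HEPES pH 7.4, 5 mM MgCl2, 1% DMSO. Incubated 16 h at room temperature; non-specific binding with 1 µM atropine. pIC50 from 50% reduction of specific binding.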

With `Cc1nc(C(=O)N2CC(C)(C)OC3(CCN(Cc4cccc(CCNC[C@H](O)c5ccc(O)c6[nH]c(=O)sc56)c4)CC3)C2)cs1` [Example 271, (R)-7-(2-(3-((2,2-Dimethyl-4-(2-methylthiazole-4-carbonyl)-1-oxa-4,9-diazaspiro[5.5]undecan-9-yl)methyl)phenethylamino)-1-hydroxyethyl)-4-hydroxybenzo[d]thiazol-2(3H)-one ditrifluoroacetate] the EC50 [1] was 6.31 nM, the “β2 Intrinsic activity” value [1] was 1 and the inhibition at 1 µM ([2]; read-out: M3 inhibtion at 1 μM (printed in the M3 pIC50 column)) was 30%.
`Cc1ccc(C(=O)N2CCOC3(CCN(Cc4cccc(CCNC[C@H](O)c5ccc(O)c6[nH]c(=O)ccc56)c4)CC3)C2)s1` [Example 9, (R)-8-Hydroxy-5-(1-hydroxy-2-(3-((4-(5-methylthiophene-2-carbonyl)-1-oxa-4,9-diazaspiro[5.5]undecan-9-yl)methyl)phenethylamino)ethyl)quinolin-2(1H)-one ditrifluoracetate] was tested, and the EC50 [1] was 5.01 nM, the “β2 Intrinsic activity” value [1] was 0.9 and the IC50 [2] was 2 nM.
In the case of `Cc1sc(C(C)C)nc1C(=O)N1CCOC2(CCN(Cc3cccc(CCNC[C@H](O)c4ccc(O)c5[nH]c(=O)sc45)c3F)CC2)C1` [Example 69, (R)-7-(2-(2-Fluoro-3-((4-(2-isopropyl-5-methylthiazole-4-carbonyl)-1-oxa-4,9-diazaspiro[5.5]undecan-9-yl)methyl)phenethylamino)-1-hydroxyethyl)-4-hydroxybenzo[d]thiazol-2(3H)-one ditrifluoroacetate], the EC50 [1] was 15.8 nM, the “β2 Intrinsic activity” value [1] was 0.9 and the IC50 [2] was 20 nM.
For `CCc1cc(C(=O)N2CCOC3(CCN(Cc4cccc(CCNC[C@H](O)c5ccc(O)c6[nH]c(=O)sc56)c4)CC3)C2)cs1` [Example 86, (R)-7-(2-(3-((4-(5-Ethylthiophene-3-carbonyl)-1-oxa-4,9-diazaspiro[5.5]undecan-9-yl)methyl)phenethylamino)-1-hydroxyethyl)-4-hydroxybenzo[d]thiazol-2(3H)-one ditrifluoroacetate], the EC50 [1] was 2.51 nM, the “β2 Intrinsic activity” value [1] was 0.8 and the IC50 [2] was 0.158 nM.
`CCc1ccc(C(=O)N2CCOC3(CCN(Cc4cccc(CCNC[C@H](O)c5ccc(O)c6[nH]c(=O)ccc56)c4)CC3)C2)s1` [Example 12, (R)-5-(2-(3-((4-(5-Ethylthiophene-2-carbonyl)-1-oxa-4,9-diazaspiro[5.5]undecan-9-yl)methyl)phenethylamino)-1-hydroxyethyl)-8-hydroxyquinolin-2(1H)-one ditrifluoroacetate] was tested, and the EC50 [1] was 10 nM, the “β2 Intrinsic activity” value [1] was 1 and the IC50 [2] was 1 nM.
For `Cc1nc(C(=O)N2CCOC3(CCN(CCc4ccc(CCNC[C@H](O)c5ccc(O)c6[nH]c(=O)sc56)cc4)CC3)C2)cs1` [Example 5, (R)-4-Hydroxy-7-(1-hydroxy-2-(4-(2-(4-(2-methylthiazole-4-carbonyl)-1-oxa-4,9-diazaspiro[5.5]undecan-9-yl)ethyl)phenethylamino)ethyl)benzo[d]thiazol-2(3H)-one ditrifluoroacetate], the EC50 [1] was 79.4 nM, the “β2 Intrinsic activity” value [1] was 0.9 and the IC50 [2] was 2.51 nM.
`CC(C)c1nc(C(=O)N2CCOC3(CCN(Cc4ccc(F)c(CCNC[C@H](O)c5ccc(O)c6[nH]c(=O)sc56)c4F)CC3)C2)cs1` [Example 45, (R)-7-(2-(2,6-Difluoro-3-((4-(2-isopropylthiazole-4-carbonyl)-1-oxa-4,9-diazaspiro[5.5]undecan-9-yl)methyl)phenethylamino)-1-hydroxyethyl)-4-hydroxybenzo[d]thiazol-2(3H)-one ditrifluoroacetate] was tested, and the EC50 [1] was 10 nM, the “β2 Intrinsic activity” value [1] was 0.8 and the IC50 [2] was 5.01 nM.
`Cc1nc(C(=O)N2CCOC3(CCN(Cc4cccc(CCOCCC(=O)N(CCNC[C@H](O)c5ccc(O)c6[nH]c(=O)sc56)C5CCCCC5)c4)CC3)C2)cs1` [Example 277, (R)—N-Cyclohexyl-N-(2-(2-hydroxy-2-(4-hydroxy-2-oxo-2,3-dihydrobenzo[d]thiazol-7-yl)ethylamino)ethyl)-3-(3-((4-(2-methylthiazole-4-carbonyl)-1-oxa-4,9-diazaspiro[5.5]undecan-9-yl)methyl)phenylethoxy)propanamide ditrifluoroacetate] was tested, and the EC50 [1] was 31.6 nM, the “β2 Intrinsic activity” value [1] was 0.9 and the IC50 [2] was 0.1 nM.
For `Cc1ccc(C(=O)N2CCOC3(CCN(Cc4ccc(F)c(CCNC[C@H](O)c5ccc(O)c6[nH]c(=O)ccc56)c4F)CC3)C2)s1` [Example 35, (R)-5-(2-(2,6-Difluoro-3-((4-(5-methylthiophene-2-carbonyl)-1-oxa-4,9-diazaspiro[5.5]undecan-9-yl)methyl)phenethylamino)-1-hydroxyethyl)-8-hydroxyquinolin-2(1H)-one ditrifluoroacetate], the EC50 [1] was 12.6 nM, the “β2 Intrinsic activity” value [1] was 1 and the IC50 [2] was 25.1 nM.
`Cc1ccc(C(=O)N2CCOC3(CCN(Cc4cccc(OCCNC[C@H](O)c5ccc(O)c6[nH]c(=O)sc56)c4)CC3)C2)s1` [Example 38, (R)-4-Hydroxy-7-(1-hydroxy-2-(2-(3-((4-(5-methylthiophene-2-carbonyl)-1-oxa-4,9-diazaspiro[5.5]undecan-9-yl)methyl)phenoxy)ethylamino)ethyl)benzo[d]thiazol-2(3H)-one ditrifluoroacetate] was tested, and the EC50 [1] was 20 nM, the “β2 Intrinsic activity” value [1] was 0.8 and the IC50 [2] was 2.51 nM.
With `Cc1ccc(C(=O)N2CCOC3(CCN(Cc4cc(CCNC[C@H](O)c5ccc(O)c6[nH]c(=O)sc56)cc(F)c4F)CC3)C2)s1` [Example 32, (R)-7-(2-(3,4-Difluoro-5-((4-(5-methylthiophene-2-carbonyl)-1-oxa-4,9-diazaspiro[5.5]undecan-9-yl)methyl)phenethylamino)-1-hydroxyethyl)-4-hydroxybenzo[d]thiazol-2(3H)-one ditrifluoroacetate] the EC50 [1] was 3.16 nM, the “β2 Intrinsic activity” value [1] was 1.1 and the IC50 [2] was 39.8 nM.
